Measurements taken from patent publication US7790896B2, “RNA-selective probes for live cell imaging of nuclear structure and function” (New York University, priority 2006, dated 2010).

Tests used:
[1] = Fluorescence spectrum in TE buffer of dyes selected from live cell imaging; assay type: physicochemical; settings: dye 10 μM in TE buffer
Procedure: (§1) The fluorescence spectra data in the primary screening and selected dyes titration assay study was obtained by Gemini XS plate reader. RNA solution was prepared right before the assay experiments to avoid possible degradation and contamination. In the primary screening, 1 mg/mL RNA (type VI from torula yeast) buffer solution was used. Point scans were carried out first using five Ex/Em point sets ([…], 400/500, 450/550, 500/600, 550/650 nm). Spectra scans were then carried out for the selected dyes. Excitation wavelengths were set at 350 nm, 400 nm, 450 nm, 500 nm, and 550 nm and the emission wavelengths were scanned. RNA (16S- and 23S-ribosomal from E. coli) and DNA (salmon testes) titration experiments and quantum yield/extinction coefficient determination for the three best dyes were carried out by the plate reader as well. Excitation λmax obtained from F-2500 Hitachi Fluorophotometer was used. Absorbance wavelength was determined by SpectraMax Plus^384 absorbance plate reader. […] was chosen as standard and 480 nm was used as excitation wavelength in the scanning for quantum yield determination.

[2] = test system: Hela, A549, 3T3, and 3T3-L1; assay: Optimization of working concentration and imaging properties, live cell staining; assay type: cell-based, human, mouse; settings: 20, 10, 5 and 1 μM tested in four cell lines
Procedure: (§2) All cell staining imaging followed the same procedure. Generally, dyes in dry state were first dissolved in DMSO to obtain the stock solution. The stock solutions were then added directly to the cell culture wells to reach the desired concentration. Total DMSO was lower than 0.1%. After adding dyes, cells were incubated at 37° C. in 5% CO2 for 25 minutes. The medium was then removed and cells were rinsed with fresh medium twice. The cells were then imaged at ambient temperature in the medium. Exposure time was kept less than 5 seconds and adjusted to each dye.
In fluorescence microscopic imaging studies, it is always desirable to use as little dye as possible to stain organelles in order to maximize specificity and minimize dye toxicity and cell death. To determine the lowest working concentration of each dye, four different concentrations (20 μM, 10 μM, 5 μM, and 1 μM) were tested in four cell lines (Hela, A549, 3T3, and 3T3-L1). Dyes E36, E144, and F112 were imaged using FITC channel, and F22 was imaged using Cy3 channel. Generally, a quality fluorescence signal for each dye was produced using a concentration of 5 μM for E36, E144, and F22 and 10 μM for F112 (Table 5). It was interesting to observe that compound F22 was brighter in 3T3 cells, and a concentration of 1 μM was sufficient for a clear image (FIG. 4). […] Little photobleaching and no obvious cell morphology or viability changes were observed during the tests.

[3] = test system: Hela, A549, 3T3, and 3T3-L1 cells; assay: Dye cell-tolerability: cell viability and morphology changes observed; assay type: cell-based, human, mouse; settings: 20 μM, after 8 hours
Procedure: Low cytotoxicity is one of the most important criteria for live cell imaging probes. All four compounds were tested at 20 μM, 10 μM, 5 μM, and 1 μM in Hela, A549, 3T3, and 3T3-L1 cells. Cell viability and morphology changes were observed during 2, 8, and 24 hours. Only dye E36 was toxic to A549, 3T3, and 3T3-L1 cells at high concentration (20 μM) after 8 hours.

[4] = test system: RNA (Type VI from torula yeast); assay: In vitro solution assay (primary screening): fluorescent emission fold change upon binding to RNA; settings: dye 10 μM, RNA 500 μg/mL in TE buffer
Procedure: as §1
The screening strategy used in this study is illustrated in FIG. 2. Both in vitro RNA assays and live cell imaging methods were utilized in the primary screening of the dye library. Selective binding of the dye to RNA in solution was the primary criterion for selecting lead compounds for subsequent bioimaging studies, Herein, the library dyes' fluorescent emission intensity fold change upon binding to RNA was measured in solution. Dyes showing five-fold or higher emission changes in the presence of RNA were selected (Table 3). Note the dyes listed are identified by the building blocks I and II from Table 2. For example, A4 is the product made by reacting compound A from the list of Building block I and compound 4 from the list of Building block II.

[5] = test system: 3T3 cells; assay: Live cell staining working concentration in 3T3 cells; assay type: cell-based, mouse
Procedure: as §2
In fluorescence microscopic imaging studies, it is always desirable to use as little dye as possible to stain organelles in order to maximize specificity and minimize dye toxicity and cell death. To determine the lowest working concentration of each dye, four different concentrations (20 μM, 10 μM, 5 μM, and 1 μM) were tested in four cell lines (Hela, A549, 3T3, and 3T3-L1). Dyes E36, E144, and F112 were imaged using FITC channel, and F22 was imaged using Cy3 channel. Generally, a quality fluorescence signal for each dye was produced using a concentration of 5 μM for E36, E144, and F22 and 10 μM for F112 (Table 5). It was interesting to observe that compound F22 was brighter in 3T3 cells, and a concentration of 1 μM was sufficient for a clear image (FIG. 4). […]

[6] = test system: A549; assay: Phototoxicity test, MTS assay of irradiated cells; assay type: cell-based, human; settings: dye 5 μM, irradiated 5 minutes, 24 hours incubation
Procedure: Dye DMSO stock solutions were diluted by fresh medium into working concentration (5 μM). Cells were cultured in 96-well plate for 12 hours before experiments. The cell medium was exchanged with dye medium solutions. Cells were then incubated in at 37° C., in 5% CO2 for 25 minutes before being irradiated by fluorescent light using the appropriate working filter (FITC for E36 and E144; Cy3 for F22) for 5 minutes. The plates were then incubated at 37° C. in 5% CO2 The cell viability was measured by MTS assay after 5 and 24 hours following the cytotoxicity measurement procedure. Duplicated experiments have been tested.
Phototoxicity is also an important factor in evaluating applicability of new fluorescent probes for live cell imaging. […] Nevertheless, it is desirable for the new imaging probes to be as non-phototoxic as possible. To investigate the phototoxicity of the present RNA-selective compounds, cellular viability of irradiated cells using MTS assay was assessed. Cells were incubated with dyes (E36, E144, and F22) in their working concentration (5 μM), and then irradiated with the appropriate filters using the fluorescent microscope (FITC for E36 and E144; Cy3 for F22). While light exposures used for imaging experiments are generally a few seconds long at most, cells were irradiated for 5 minutes for prolonged toxicity measurement. […]

| SMILES | SPECTRUM EM [1] | SPECTRUM EX [1] | Optimum Concentration for live cell imaging [2] | Toxicity (cell viability and morphology changes) [3] | Em(nm) [4] | Ex(nm) [4] | Fold (fluorescent emission fold changes to RNA) [4] | Concentration sufficient for a clear image [5] | Phototoxicity [6] |
| --- | --- | --- | --- | --- | --- | --- | --- | --- | --- |
| C[n+]1c(/C=C/c2c[nH]c3ccccc23)ccc2ccccc21 [Dye E36] | 550 nm | 450 nm | 5 µM | toxic |  |  |  |  |  |
| COc1cc(OC)c(/C=C/c2ccc3ccccc3[n+]2C)c(OC)c1 [Dye E144] |  |  | 5 µM |  | 540 nm | 450 nm | 5 |  |  |
| COc1ccc2c(ccc(/C=C/c3ccc(N(C)C)cc3)[n+]2C)c1 [Dye F22] |  |  |  |  | 640 nm | 500 nm | 23 | 1 µM | not A549 |
